Here are results for 1 molecule from patent US10570454B2, “Methods of identifying individuals at increased risk of lung cancer” (Trustees of Boston University, priority 2007, dated 2020).

Entries after “also recorded” stand apart in the source; their conditions may differ.

Data set [1] has as its system dysplastic airway lesions. The conditions noted are these: cited from earlier work.
In data set [2] the test system is PI3K pathway. As to the kind of experiment: GSEA of PI3K gene sets in cytologically normal airway epithelium before versus after myo-inositol treatment. The class given is in vivo, human. Here is the method:
Cytologically normal airway epithelial samples from patients with dysplastic airway lesions at the University of British Columbia were collected before and after 2-3 months of treatment with myo-inositol (n=20, 10 patients with two samples each), as well as six additional samples collected pre-treatment with myo-inositol as part of a dose response study. In that study, bronchial brushing was performed in three separate 6-8th generation bronchial airways using a 1.7 mm diameter bronchial cytology brush (Hobbs Medical, Stafford Springs, Conn.). The brush was retrieved and immediately immersed in RNALater and kept frozen at −80° C. until assayed. Epithelial cell content of representative bronchial brushing samples has been quantitated by cytocentrifugation (ThermoShandon Cytospin, Pittsburgh, Pa.) of the cell pellet and staining with a cytokeratin antibody (Signet, Dedham Mass.). The cells in the bronchial brush contained >90% bronchial epithelial cells. […]
Gene Set Enrichment Analysis was calculated using GSEA v2. […] Genes were ranked using the following linear model (as calculated in R): Y=β0+β1+β2+b+ε Where Y is the expression of a gene, β0 is the intercept, β1 measures lung cancer risk (whether the sample has dysplasia or not), β2 is the cumulative cigarette smoke exposure for each person (pack-years), b is a random effect correcting for batch differences, and ε is the error term. […]

The test system of data set [3] is PI3K. As to the kind of experiment: PI3K kinase assay (PIP3 production) in insulin-stimulated BEAS-2B cells. The class given is cell-based. The conditions noted are these: BEAS-2B (bronchial airway cell line), insulin-activated, varying doses. Here is the method:
(§1) Insulin was used to activate the PI3K pathway in three different cell lines: (FIG. 5A) BEAS-2B (bronchial airway cell line), (FIG. 5B) BT549 (breast cancer cell line), and (FIG. 5C) HEK293 (human embryonic kidney cell line). The cell lines were then treated with varying doses of myo-inositol and LY-294002. PIP3 levels were measured to quantify the activation levels of the PI3K pathway (y-axis). […] Replication of these experiments produced similar results.
(§2) 80% confluent BEAS-2B, BT549, or HEK293 cells were starved in BEBM, RPMI, or DMEM medium, respectively (Clonetics, GibcoBRL). This media contained either 0.1% added supplements for the BEAS-2B cells or 0.1% fetal bovine serum for BT549 and HEK293 cells for 24 hrs. […] The production of PIP3 was evaluated by autoradiography and quantified by densitometry analysis and scintillation analysis. […]
(§3) A reduction in PI3K activity in patients that responded to myo-inositol with a regression of dysplasia in their airway reinforces the association between elevated PI3K activity levels and the presence of pre-neoplastic airway lesions. […] PI3K activity, as measured by PIP3 levels, was then quantified using a standard kinase assay protocol. For this experiment, three different cell lines were analyzed in replicate: BEAS-2B (airway), BT549 (breast cancer) and HEK293 (embryonic kidney). […]

Data set [4] relates to PI3K. In words: PI3K kinase assay (PIP3 production) in insulin-stimulated HEK293 cells. Particulars: HEK293 (human embryonic kidney cell line), insulin-activated, varying doses. The class given is cell-based. The protocol: as §1, §2, §3
Data set [5] has as its system PI3K. In words: PI3K kinase assay (PIP3 production) in insulin-stimulated BT549 cells. It is filed as cell-based. The conditions noted are these: BT549 (breast cancer cell line), insulin-activated, varying doses. Here is the method:
as §1, §2, §3

Regarding `O[C@H]1[C@H](O)[C@@H](O)[C@H](O)[C@@H](O)[C@H]1O` [myo-inositol], the “rate of dysplastic regression” value in data set [1] (oral, 2-3 months, smokers with moderate-severe dysplasia, versus placebo-treated control patients) is reported as “significantly increase the rate of dysplastic regression”. Moreover, the side effects entry in data set [1] (taken orally) is given as “very minor side effects”. The “change in expression of PI3K gene sets (GSEA), before versus after treatment” value in data set [2] (subjects that did not respond to treatment (n=3, 6 samples)) was “no change in the levels of the PI3K gene sets”; in data set [2] (subjects who did respond to treatment (n=6, 12 samples), p=0.04, FDR Q=0.177) it was “increased expression of genes in the PI3K Down gene set”. Also, the “PI3K activity, as measured by PIP3 levels” value in data set [3], in data set [4] and in data set [5] was “inhibited PI3K activity levels in a dose-dependent manner; also recorded: drop in PIP3 levels” in each case.
